In publication PMC6509195 (mBio, 2019):

Tests used:
CsiD (PP_2909) [1] = target: T1, CsiD (PP_2909) (Pseudomonas putida, UniProt Q88IU0); assay: LC-TOF detection of L-2HG; assay type: biochemical; details: 2-oxoacid co-substrate in place of 2KG; glutarate, FeSO4, HEPES pH 7, 22°C
T1 construct: gene glaH
T1 sequence (Q88IU0 1-325): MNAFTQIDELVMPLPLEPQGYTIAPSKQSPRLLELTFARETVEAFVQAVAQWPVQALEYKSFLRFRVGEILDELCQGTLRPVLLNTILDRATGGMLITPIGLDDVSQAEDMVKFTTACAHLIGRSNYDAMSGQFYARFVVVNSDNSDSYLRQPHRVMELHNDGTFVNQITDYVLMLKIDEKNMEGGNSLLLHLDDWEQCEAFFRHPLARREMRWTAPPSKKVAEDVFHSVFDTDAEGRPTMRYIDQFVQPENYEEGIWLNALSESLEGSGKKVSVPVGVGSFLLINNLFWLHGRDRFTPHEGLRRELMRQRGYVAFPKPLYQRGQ

[2] = target: T2, CsiD homolog from E. coli (Escherichia coli, UniProt P76621); assay: LC-TOF detection of L-2HG; assay type: biochemical; details: 2-oxoacid co-substrate in place of 2KG; glutarate, FeSO4, HEPES pH 7, 22°C
T2 construct: gene glaH
T2 sequence (P76621 1-325): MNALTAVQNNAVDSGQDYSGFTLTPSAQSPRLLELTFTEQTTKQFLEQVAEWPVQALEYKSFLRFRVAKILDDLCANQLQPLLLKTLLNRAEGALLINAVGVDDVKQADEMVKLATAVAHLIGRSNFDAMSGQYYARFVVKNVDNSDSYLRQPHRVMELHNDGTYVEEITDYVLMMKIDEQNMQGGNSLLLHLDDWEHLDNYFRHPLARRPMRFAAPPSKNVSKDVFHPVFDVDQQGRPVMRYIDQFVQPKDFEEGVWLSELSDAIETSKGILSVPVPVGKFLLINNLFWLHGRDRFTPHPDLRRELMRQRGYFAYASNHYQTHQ

PP_4108 = target: T3, PP_4108 (Pseudomonas putida, UniProt Q88FI7); assay: colorimetric glutamate assay of transamination; assay type: biochemical; details: 2KG as amino acceptor, PLP, 50 mM HEPES pH 7.5, 30°C, 16 h
T3 sequence (Q88FI7 1-416): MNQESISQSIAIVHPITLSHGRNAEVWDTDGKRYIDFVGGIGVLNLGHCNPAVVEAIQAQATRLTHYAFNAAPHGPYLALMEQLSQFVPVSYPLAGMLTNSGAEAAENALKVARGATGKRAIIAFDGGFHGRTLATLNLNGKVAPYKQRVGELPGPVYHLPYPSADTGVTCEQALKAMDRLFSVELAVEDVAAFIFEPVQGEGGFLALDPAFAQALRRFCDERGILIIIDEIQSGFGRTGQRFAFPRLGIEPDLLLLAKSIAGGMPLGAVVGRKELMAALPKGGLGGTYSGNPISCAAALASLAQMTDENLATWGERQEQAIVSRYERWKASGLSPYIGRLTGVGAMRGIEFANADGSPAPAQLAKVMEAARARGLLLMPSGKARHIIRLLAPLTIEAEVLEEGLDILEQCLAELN

CsiD (PP_2909) [3] = target: T1, CsiD (PP_2909); assay: LC-TOF / HPLC product analysis; assay type: biochemical; details: 2KG co-substrate, 25 μM FeSO4, ascorbate, DTT, 50 mM HEPES pH 7, 22°C, 3 h
[4] = target: T2, CsiD homolog from E. coli; assay: LC-TOF product analysis; assay type: biochemical; details: 2KG co-substrate, FeSO4, HEPES pH 7, 22°C
purified protein = substrate: O=C(O)CCCC(=O)C(=O)O; assay: purified protein; assay type: biochemical, Pseudomonas putida; details: 100 mM Tris-HCl pH 7, 10 mM MgCl2, 50 μM FeCl2, Fe(II)-dependent

O=C(O)CCCC(=O)C(=O)O [2-oxoadipate]
LC-TOF detection of L-2HG (CsiD (PP_2909) [1]): all three CsiD homologs could utilize both 2OA and 2KG, but not oxaloacetate | LC-TOF detection of L-2HG [2]: all three CsiD homologs could utilize both 2OA and 2KG, but not oxaloacetate

N[C@@H](CCCC(=O)O)C(=O)O [L-2-aminoadipate]
relative activity (PP_4108): The enzyme was most active on L-2AA

O=C(O)CCCC(=O)O [glutarate]
LC-TOF / HPLC product analysis (CsiD (PP_2909) [3]): purified csiD and confirmed that it hydroxylated glutarate in a 2KG-dependent manner | LC-TOF product analysis [4]: found that only glutarate served as a hydroxylation substrate

B1: PP_5260 (Pseudomonas putida KT2440) (protein)
chain: MPANDFVSPDSIRAQFSAAMSLMYKQEVPLYGTLLELVSEINQQVMAQQPEVAEALRWTGEIERLDQERHGAIRVGTAEELATIARLFAVMGMQPVGYYDLSSAGVPVHSTAFRAVHEQSLHVSPFRVFTSLLRLELIDNPQLRELAQSILAKRQIFTSRALELIAQCEREGGLDAADAETFVQEALHTFRWHQDATVTAEQYQQLHDQHRLIADVVAFKGPHINHLTPRTLDIDAIQLGMPAKGIPPKAVVEGPPTRRHPILLRQTSFKALQETVAFRDQQGREGSHTARFGEIEQRGAALTPKGRQLYDKLLDATRVALGGAPAEANAERYMALLQANFAEFPDDLAQMREQGLAYFRYFATEKGLAARDQEGRPTTLQGLIDAGHVHFEALVYEDFLPVSAAGIFQSNLGDDAQAEYGSNANREAFEAALGLQVQDELALYAQSERRSLQACAQALNLGSM
Km (purified protein): 0.06 (± 0.03) mM
